≈ marks a conversion by molar mass, not a printed value. *1 amine or outer side, *2 acyl side, *3 side chain or, on linkers, in order; H or OH if unused. Where a SMILES comes first, the peptide text is derived from it. Bridges are numbered along the chain shown (N, C = ends). [ ]: non-standard residue; d: D form. The star is where a group is joined. TBMB = c1c(C[*:1])cc(C[*:3])cc1C[*:2]; NHDecyl = CCCCCCCCCCN*
Test system: M. luteus (NCTC2665)
Assay: microbe, parasite or virus in culture
Assay type: cell-based, Micrococcus luteus
Conditions: Supplemental table S6, lipidated phage display hits; n.a. = not active, highest tested conc 64 µg/ml
Procedure: Section 4 Biological and biochemical experiments
4.1 Minimum inhibitory concentration assay
MIC values were determined by using the broth microdilution method. Peptides were dissolved first in DMSO and diluted with broth so that the final peptide concentration was 1024 µg/ml and the DMSO concentration was 4%. Peptide serial dilutions were made in TSB in a polypropylene 96-wells plate using 50 µl volumes. An overnight culture of the organism of interest was diluted to and OD600 of 0.01 and grown until they reach 0.5. The culture was then diluted to 1 x 10^6 CFU/ml and 50 µl of this suspension was added to each well. The highest concentrations were then 512 µg/ml peptide and 2% DMSO. The plates were incubated at the preferred growth temperature of the organism that was used and 250 rpm. […] When […]
determining the MICs of the lipidated peptides, the lipopeptides were first dissolved in DMSO and diluted with TSB so that the peptide concentration was 128 µg/ml and the DMSO concentration was 4%. After inoculation the highest peptide concentration evaluated was 64 µg/ml and the DMSO concentration was 2%. A DMSO control was tested for each strain to ensure the DMSO did not affect the growth of the particular strain. […]

Structure (SMILES)	MIC M. luteus
CCCCCCCCCCNC(=O)CNC(=O)[C@@H]1CSCc2cc3cc(c2)CSC[C@H](NC(=O)[C@H](Cc2ccc(O)cc2)NC(=O)[C@H](Cc2c[nH]c4ccccc24)NC(=O)[C@H](CC(=O)O)NC(=O)[C@H](C(C)C)NC(=O)[C@@H]2CCCN2C(=O)[C@H](Cc2ccc(O)cc2)NC(=O)[C@@H](NC(=O)[C@H](C)N)CSC3)C(=O)N[C@@H](CC(C)C)C(=O)N[C@@H](Cc2ccccc2)C(=O)N[C@@H](CCC(N)=O)C(=O)N[C@@H]([C@@H](C)O)C(=O)N[C@@H](C(C)C)C(=O)N[C@@H](CC(=O)O)C(=O)N1 [Peptide P6-C10] (H-ACYPVDWYCLFQTVDCG-NHDecyl; linker 2-9-16 via TBMB; N-terminus assumed)	2 µg/mL (≈ 0.894 µM)

Same assay, conditions: Supplemental table S8; non-lipidated P8 variants; broth microdilution, highest tested 512 µg/ml

Structure (SMILES)	MIC of Ala scan of P8-D against M. luteus
CC(C)C[C@H]1NC(=O)[C@H](NC(=O)[C@@H](C)N)CSCc2cc3cc(c2)CSC[C@@H](NC(=O)[C@@H](CC(C)C)NC(=O)[C@@H](CC(C)C)NC(=O)[C@@H](CO)NC(=O)[C@@H](CCC(N)=O)NC(=O)[C@@H](CC(C)C)NC1=O)C(=O)N1CCC[C@@H]1C(=O)N[C@H](Cc1ccc(O)cc1)C(=O)N[C@H](CO)C(=O)N[C@H]([C@H](C)O)C(=O)N[C@H](C)C(=O)N[C@H](CCCNC(=N)N)C(=O)N[C@@H](C(=O)NCC(N)=O)CSC3 [Peptide P8-D-H14A] (H-[dA][dC][dL][dL][dQ][dS][dL][dL][dC][dP][dY][dS][dT][dA][dR][dC]G-NH2; linker 2-9-16 via TBMB; N-terminus assumed)	64 to 128 µg/mL
CC(C)C[C@H]1NC(=O)[C@@H](C)NC(=O)[C@H](NC(=O)[C@@H](C)N)CSCc2cc3cc(c2)CSC[C@@H](NC(=O)[C@@H](CC(C)C)NC(=O)[C@@H](CC(C)C)NC(=O)[C@@H](CO)NC(=O)[C@@H](CCC(N)=O)NC1=O)C(=O)N1CCC[C@@H]1C(=O)N[C@H](Cc1ccc(O)cc1)C(=O)N[C@H](CO)C(=O)N[C@H]([C@H](C)O)C(=O)N[C@H](Cc1c[nH]cn1)C(=O)N[C@H](CCCNC(=N)N)C(=O)N[C@@H](C(=O)NCC(N)=O)CSC3 [Peptide P8-D-L3A] (H-[dA][dC][dA][dL][dQ][dS][dL][dL][dC][dP][dY][dS][dT][dH][dR][dC]G-NH2; linker 2-9-16 via TBMB; N-terminus assumed)	> 512 µg/mL
CC(C)C[C@H]1NC(=O)[C@H](NC(=O)[C@@H](C)N)CSCc2cc3cc(c2)CSC[C@@H](NC(=O)[C@@H](CC(C)C)NC(=O)[C@@H](CC(C)C)NC(=O)[C@@H](CO)NC(=O)[C@@H](CCC(N)=O)NC(=O)[C@@H](C)NC1=O)C(=O)N1CCC[C@@H]1C(=O)N[C@H](Cc1ccc(O)cc1)C(=O)N[C@H](CO)C(=O)N[C@H]([C@H](C)O)C(=O)N[C@H](Cc1c[nH]cn1)C(=O)N[C@H](CCCNC(=N)N)C(=O)N[C@@H](C(=O)NCC(N)=O)CSC3 [Peptide P8-D-L4A] (H-[dA][dC][dL][dA][dQ][dS][dL][dL][dC][dP][dY][dS][dT][dH][dR][dC]G-NH2; linker 2-9-16 via TBMB; N-terminus assumed)	> 512 µg/mL
CC(C)C[C@H]1NC(=O)[C@@H](C)NC(=O)[C@@H](CO)NC(=O)[C@@H](CCC(N)=O)NC(=O)[C@@H](CC(C)C)NC(=O)[C@@H](CC(C)C)NC(=O)[C@H](NC(=O)[C@@H](C)N)CSCc2cc3cc(c2)CSC[C@@H](NC1=O)C(=O)N1CCC[C@@H]1C(=O)N[C@H](Cc1ccc(O)cc1)C(=O)N[C@H](CO)C(=O)N[C@H]([C@H](C)O)C(=O)N[C@H](Cc1c[nH]cn1)C(=O)N[C@H](CCCNC(=N)N)C(=O)N[C@@H](C(=O)NCC(N)=O)CSC3 [Peptide P8-D-L7A] (H-[dA][dC][dL][dL][dQ][dS][dA][dL][dC][dP][dY][dS][dT][dH][dR][dC]G-NH2; linker 2-9-16 via TBMB; N-terminus assumed)	512 µg/mL
CC(C)C[C@H]1NC(=O)[C@@H](CO)NC(=O)[C@@H](CCC(N)=O)NC(=O)[C@@H](CC(C)C)NC(=O)[C@@H](CC(C)C)NC(=O)[C@H](NC(=O)[C@@H](C)N)CSCc2cc3cc(c2)CSC[C@@H](NC(=O)[C@@H](C)NC1=O)C(=O)N1CCC[C@@H]1C(=O)N[C@H](Cc1ccc(O)cc1)C(=O)N[C@H](CO)C(=O)N[C@H]([C@H](C)O)C(=O)N[C@H](Cc1c[nH]cn1)C(=O)N[C@H](CCCNC(=N)N)C(=O)N[C@@H](C(=O)NCC(N)=O)CSC3 [Peptide P8-D-L8A] (H-[dA][dC][dL][dL][dQ][dS][dL][dA][dC][dP][dY][dS][dT][dH][dR][dC]G-NH2; linker 2-9-16 via TBMB; N-terminus assumed)	128 to 256 µg/mL
CC(C)C[C@H]1NC(=O)[C@H](NC(=O)[C@@H](C)N)CSCc2cc3cc(c2)CSC[C@@H](NC(=O)[C@@H](CC(C)C)NC(=O)[C@@H](CC(C)C)NC(=O)[C@@H](CO)NC(=O)[C@@H](CCC(N)=O)NC(=O)[C@@H](CC(C)C)NC1=O)C(=O)N[C@H](C)C(=O)N[C@H](Cc1ccc(O)cc1)C(=O)N[C@H](CO)C(=O)N[C@H]([C@H](C)O)C(=O)N[C@H](Cc1c[nH]cn1)C(=O)N[C@H](CCCNC(=N)N)C(=O)N[C@@H](C(=O)NCC(N)=O)CSC3 [Peptide P8-D-P10A] (H-[dA][dC][dL][dL][dQ][dS][dL][dL][dC][dA][dY][dS][dT][dH][dR][dC]G-NH2; linker 2-9-16 via TBMB; N-terminus assumed)	128 µg/mL
CC(C)C[C@H]1NC(=O)[C@@H](CC(C)C)NC(=O)[C@H](NC(=O)[C@@H](C)N)CSCc2cc3cc(c2)CSC[C@@H](NC(=O)[C@@H](CC(C)C)NC(=O)[C@@H](CC(C)C)NC(=O)[C@@H](CO)NC(=O)[C@@H](C)NC1=O)C(=O)N1CCC[C@@H]1C(=O)N[C@H](Cc1ccc(O)cc1)C(=O)N[C@H](CO)C(=O)N[C@H]([C@H](C)O)C(=O)N[C@H](Cc1c[nH]cn1)C(=O)N[C@H](CCCNC(=N)N)C(=O)N[C@@H](C(=O)NCC(N)=O)CSC3 [Peptide P8-D-Q5A] (H-[dA][dC][dL][dL][dA][dS][dL][dL][dC][dP][dY][dS][dT][dH][dR][dC]G-NH2; linker 2-9-16 via TBMB; N-terminus assumed)	> 512 µg/mL

Same assay, conditions: Table 1; non-lipidated bicyclic peptides; broth microdilution in TSB, 16 h, read visually; n.a. = no activity, highest tested concentration 512 μg mL^–1

Structure (SMILES)	MIC against M. luteus
CC[C@H](C)[C@@H]1NC(=O)[C@@H]2CSCc3cc(cc(c3)CSC[C@@H](C(=O)NCC(N)=O)NC(=O)[C@H](CCCNC(=N)N)NC(=O)[C@H]([C@@H](C)CC)NC(=O)[C@H](CC(N)=O)NC(=O)[C@H](C)NC(=O)[C@H](CO)NC1=O)CSC[C@H](NC(=O)[C@H](C)N)C(=O)N[C@@H](CCCNC(=N)N)C(=O)N1CCC[C@H]1C(=O)N[C@@H](CCC(N)=O)C(=O)N[C@@H](CCCCN)C(=O)N[C@@H](Cc1ccccc1)C(=O)N[C@@H](CC(N)=O)C(=O)N2 [Peptide P4] (H-ACRPQKFNCISANIRCG-NH2; linker 2-9-16 via TBMB; N-terminus assumed)	64 μg mL^–1
CC(C)C[C@@H]1NC(=O)[C@@H]2CSCc3cc(cc(c3)CSC[C@@H](C(=O)NCC(N)=O)NC(=O)[C@H](CC(=O)O)NC(=O)[C@H](C(C)C)NC(=O)[C@H]([C@@H](C)O)NC(=O)[C@H](CCC(N)=O)NC(=O)[C@H](Cc3ccccc3)NC1=O)CSC[C@H](NC(=O)[C@H](C)N)C(=O)N[C@@H](Cc1ccc(O)cc1)C(=O)N1CCC[C@H]1C(=O)N[C@@H](C(C)C)C(=O)N[C@@H](CC(=O)O)C(=O)N[C@@H](Cc1c[nH]c3ccccc13)C(=O)N[C@@H](Cc1ccc(O)cc1)C(=O)N2 [Peptide P6] (H-ACYPVDWYCLFQTVDCG-NH2; linker 2-9-16 via TBMB; N-terminus assumed)	128 μg mL^–1
